What was measured:
Bacteriorhodopsin (bR) = target: T1, Bacteriorhodopsin (bR) (Halobacterium salinarum, UniProt P02945); assay: Stabilization assay for bacteriorhodopsin (absorbance at 554 nm); details: room temperature, 20 days; 0.2 wt % OTG+0.8 wt % TFA or 1.0 wt % OTG only
T1 construct: extract bR from the native purple membrane; endogenous in cells
T1 sequence (P02945 14-261 limits assumed): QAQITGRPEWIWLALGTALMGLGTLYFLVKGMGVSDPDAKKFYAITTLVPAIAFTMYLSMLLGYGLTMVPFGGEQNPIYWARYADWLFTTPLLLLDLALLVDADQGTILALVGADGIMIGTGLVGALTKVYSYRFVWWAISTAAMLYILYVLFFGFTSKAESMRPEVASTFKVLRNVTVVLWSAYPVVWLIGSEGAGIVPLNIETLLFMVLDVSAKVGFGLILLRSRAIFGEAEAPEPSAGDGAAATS
Description: Bacteriorhodopsin (bR) has been widely employed for assessment of new amphiphiles because this membrane protein is readily available, and stability can be assessed via spectrophotometry (absorbance at 554 nm). Following standard protocols (Bazzacco et al., Biomacromolecules 2009, 10, 3317-3326), 2.0 wt % octyl-β-D-thioglucoside (OTG) was used to extract bR from the native purple membrane. After removal of insoluble debris via ultracentrifugation, the bR solution was diluted with amphiphile-containing solutions to generate samples containing 0.2 wt % OTG+0.8 wt % TFA. A control sample had OTG added to give a total of 1.0 wt %. […] Parallel studies were carried out at different amphiphile concentrations as described in Example 3 below. DDM is not efficient at bR extraction from the native membrane but extracted bR can be stable in the presence of DDM (Milder et al., Biochemistry 1991, 30, 1751-1761).
The general procedure was followed according to the reported protocol of Bazzacco et al. (Biomacromolecules 10, 3317-3326 (2009)). Frozen aliquots of purple membranes containing bR at 184 μM were thawed and solubilized by incubation with octylthioglucoside (OTG) for 24 hr at 4° C. in a dark room. For the solubilization, OTG (CMC=0.28 wt %) was used at 2.0 wt % in 10 mM sodium phosphate (pH 6.9). […] BR stability in each TFA solutions was monitored by measuring absorbance at 554 nm for 20 days.

[1] = stated in the bR protocol; cited from earlier work
LHI-RC superassembly = system: T2, LHI-RC superassembly; assay: Stabilization assay for R. capsulatus superassembly (A875/A680); parameters: species or system Rhodobacter capsulatus; details: room temperature, 20 days, CMC+0.04 wt %, relative to DDM
T2 construct: The LHI-RC superassembly was extracted from native membranes with 1.0 wt % DDM; made in house; host or cells: Rhodobacter capsulatus U43[pUHTM86Bgl]; (lacks LHII), photosynthetic membranes
Description: The promising results with bR stabilization led to investigating a more challenging system, the photosynthetic superassembly formed by the light harvesting I (LHI) and reaction center (RC) complexes from Rhodobacter capsulatus (Laible et al., Biochemistry 2003, 42, 1718-1730). This superassembly contains 30-40 protein molecules (five different components), and maintenance of native quaternary structure can be assessed via spectrophotometry. The LHI-RC superassembly was extracted from native membranes with 1.0 wt % DDM and purified with DDM at its CMC (0.009 wt %). […]
Resin-retaining spin columns (e.g., emptied His SpinTrap™ columns; GE Healthcare) were inserted into a 2 mL microcentrifuge tube and the samples were then loaded onto the column. […] The protein was collected by eluting with two 0.25 mL elution buffer aliquots (this buffer was identical to binding buffer with the addition to 1 M of imidazole; the pH of each solution was checked and readjusted to pH=7.8). […]
UV-Vis spectra of these solutions were measured in regular intervals. FIG. 9 illustrates the time course of stability of R. capsulatus superassembly, evaluated at room temperature. […] Absorbance ratio (A875/A680) was followed for the stability evaluation of the membrane protein. […] FIG. 10 illustrates the absorbance spectrum of R. capsulatus superassembly in TFA-1 (a,c) and DDM (b,d) at room temperature (˜23° C.). […]

Structure (SMILES) | bR stability over time (Bacteriorhodopsin (bR)) | CMC [1] [wt %] | stability of LHI-RC superassembly (LHI-RC superassembly)
CCCCCCCCS[C@@H]1O[C@H](CO)[C@@H](O)[C@H](O)[C@H]1O [OTG, octyl-β-D-thioglucoside, reference compound] | almost completely denatured by day 10 | 0.28 | –
CCCCCCCCCCCC[N+](C)(C)[O-] [lauryldimethylamine oxide] | – | – | rapid degradation of the superassembly
CCCCCCCCO[C@@H]1O[C@H](CO)[C@@H](O)[C@H](O)[C@H]1O [octyl-glucoside] | – | – | rapid degradation of the superassembly

Reference: patent publication US10316057B2, “Tandem facial amphiphiles” (WISCONSIN ALUMNI RESEARCH FOUNDATION, priority 2011, dated 2019)
